# Measurements taken from article PMC7044277 (Nature Communications, 2020).
# Where “and” joins values, the source holds several entries; their conditions need not be identical. Equal values may be shown once.
# Experiments:
# DRD4 (D4.4 variant) [1] = target: T1, DRD4 (D4.4 variant) (Homo sapiens, UniProt P21917); experiment: Gαi/o-mediated cAMP inhibition (GloSensor); type: cell-based; settings: DRD4; agonist, cAMP inhibition; read-out: EC50 ± SEM
# T1 sequence (P21917 1-419): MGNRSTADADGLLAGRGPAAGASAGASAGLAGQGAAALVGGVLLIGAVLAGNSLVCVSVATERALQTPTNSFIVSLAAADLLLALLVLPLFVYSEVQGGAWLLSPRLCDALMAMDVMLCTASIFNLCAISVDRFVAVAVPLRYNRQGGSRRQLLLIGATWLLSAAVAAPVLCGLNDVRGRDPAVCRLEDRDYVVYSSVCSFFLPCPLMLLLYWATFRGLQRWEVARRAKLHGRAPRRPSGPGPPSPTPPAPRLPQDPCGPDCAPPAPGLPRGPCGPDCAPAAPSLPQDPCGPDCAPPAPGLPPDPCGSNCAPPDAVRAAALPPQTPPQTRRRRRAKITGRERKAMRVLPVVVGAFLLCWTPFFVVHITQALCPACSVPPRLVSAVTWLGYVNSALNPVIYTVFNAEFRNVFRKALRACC
# DRD4 (D4.4 variant) [2] = target: T1, DRD4 (D4.4 variant); experiment: β-arrestin2 recruitment (Tango); type: cell-based; settings: DRD4, Tango
# DRD3 wild-type = DRD3 wild-type (Homo sapiens, UniProt P35462); experiment: Radioligand competition binding, [3H]-N-methylspiperone; settings: DRD3 wild-type; read-out: pKi ± SEM (converted)
# Sequence of DRD3 wild-type (P35462 whole entry): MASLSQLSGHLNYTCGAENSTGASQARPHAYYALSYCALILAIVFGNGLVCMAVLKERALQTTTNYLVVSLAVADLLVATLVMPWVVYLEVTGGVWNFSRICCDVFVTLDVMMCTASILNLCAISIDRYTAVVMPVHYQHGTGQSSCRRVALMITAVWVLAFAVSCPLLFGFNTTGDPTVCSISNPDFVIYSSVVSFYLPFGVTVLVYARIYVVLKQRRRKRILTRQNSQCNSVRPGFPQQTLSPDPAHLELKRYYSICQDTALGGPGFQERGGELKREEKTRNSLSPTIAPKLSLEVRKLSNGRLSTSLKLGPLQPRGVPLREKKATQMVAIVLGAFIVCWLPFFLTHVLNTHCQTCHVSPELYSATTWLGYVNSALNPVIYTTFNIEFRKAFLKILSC
# DRD3 = DRD3 (Homo sapiens, UniProt P35462); experiment: β-arrestin2 recruitment (Tango); type: cell-based; settings: DRD3, Tango
# Sequence of DRD3 (P35462 whole entry): as above
# DRD2 F1103.28L [3] = target: T2, DRD2 F1103.28L (Homo sapiens, UniProt P14416, F110L); experiment: Gαi/o-mediated cAMP inhibition (GloSensor), mutant; type: cell-based
# T2 construct: expressed in transfected cells; host or cells: HEK293T (ATCC CRL-11268)
# T2 sequence (P14416 whole entry F110L): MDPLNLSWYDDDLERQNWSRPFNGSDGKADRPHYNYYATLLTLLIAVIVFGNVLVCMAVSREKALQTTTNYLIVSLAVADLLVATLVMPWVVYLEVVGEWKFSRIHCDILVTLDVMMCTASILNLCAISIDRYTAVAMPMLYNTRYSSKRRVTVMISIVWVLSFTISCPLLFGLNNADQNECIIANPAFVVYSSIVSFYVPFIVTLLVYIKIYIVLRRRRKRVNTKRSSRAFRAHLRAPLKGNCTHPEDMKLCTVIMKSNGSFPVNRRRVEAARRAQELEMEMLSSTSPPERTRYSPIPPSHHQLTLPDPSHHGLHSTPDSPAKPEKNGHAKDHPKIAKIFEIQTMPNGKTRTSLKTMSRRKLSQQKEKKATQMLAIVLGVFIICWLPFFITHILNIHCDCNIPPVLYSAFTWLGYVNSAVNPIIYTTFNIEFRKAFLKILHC
# DRD2 F1103.28A [4] = target: T3, DRD2 F1103.28A (Homo sapiens, UniProt P14416, F110A); experiment: β-arrestin2 recruitment (Tango), mutant; type: cell-based; parameters: expressed in transfected cells; host or cells: HEK293T (ATCC CRL-11268)
# T3 sequence (P14416 whole entry F110A): as the sequence (P14416 whole entry F110L) above, with L110A counted along it
# DRD2 F1103.28L [5] = target: T2, DRD2 F1103.28L; experiment: β-arrestin2 recruitment (Tango), mutant; type: cell-based
# DRD2 F1103.28A [6] = target: T3, DRD2 F1103.28A; type: binding; parameters: expressed in transfected cells; host or cells: HEK293T (ATCC CRL-11268)
# DRD2 (D2 long receptor) [7] = target: T4, DRD2 (D2 long receptor) (Homo sapiens, UniProt P14416); experiment: Gαi/o-mediated cAMP inhibition (GloSensor split-luciferase cAMP reporter), HEK293T; type: cell-based; settings: for response, Fig_S11d dose-response source data: replicate values;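 for all read-outs here: compounds applied 15 min at room temperature, then luciferin plus 400 nM isoproterenol to raise cAMP through endogenous β2-adrenergic receptors, luminescence read 15 min later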
# T4 sequence (P14416 whole entry): as the sequence (P14416 whole entry F110L) above, with L110F counted along it
# DRD2 (D2 long receptor) [8] = target: T4, DRD2 (D2 long receptor); experiment: β-arrestin2 recruitment (Tango), HTLA cells; type: cell-based; settings: for response, Fig_S11e dose-response source data: replicate values
# DRD3 F1063.28A [9] = target: T5, DRD3 F1063.28A (Homo sapiens, UniProt P35462, F106A); experiment: biochemical; type: binding
# T5 sequence (P35462 whole entry F106A): as the sequence (P35462 whole entry) above, with F106A counted along it
# [10] = target: T6, DRD4 (D4.4 variant) wild-type (Homo sapiens, UniProt P21917); experiment: Radioligand competition binding, [3H]-N-methylspiperone; settings: DRD4; [3H]-methylspiperone (0.8-1.0 nM); read-out: Ki
# T6 sequence (P21917 1-419): T1 sequence (P21917 1-419)
# DRD3 F1063.28A [11] = target: T5, DRD3 F1063.28A; experiment: cell-based; type: cell-based
# [12] = target: DRD2 (D2 long receptor) wild-type (Homo sapiens, UniProt P14416); experiment: Radioligand competition binding, [3H]-N-methylspiperone, HEK293T membranes; settings: DRD2; [3H]-methylspiperone (0.8-1.0 nM); read-out: Ki
# Sequence of DRD2 (D2 long receptor) wild-type (P14416 whole entry): as the sequence (P14416 whole entry F110L) above, with L110F counted along it
# DRD2 F1103.28A [13] = target: T3, DRD2 F1103.28A; experiment: Gαi/o-mediated cAMP inhibition (GloSensor), mutant; type: cell-based; parameters: expressed in transfected cells; host or cells: HEK293T (ATCC CRL-11268)
# [14] = read-out: Emax relative to quinpirole response
compound,measurement,setting,value
CCOc1cccc2cc(C(C)NCC3(O)CCCCCCC3)oc12 (centres unmarked) [O4LE8],EC50,DRD4 (D4.4 variant) [1],> 10000 nM
same,EC50,DRD4 (D4.4 variant) [2]; read-out: EC50 ± SEM,7720 ± 3420 nM
same,Emax,DRD4 (D4.4 variant) [2]; [14],22.3%
same,Ki,DRD3 wild-type,126 nM
same,EC50,DRD3; read-out: EC50 ± SEM,2570 ± 331 nM
same,Emax,DRD3; [14],12.6%
same,EC50,DRD2 F1103.28L [3]; DRD2 F1103.28L (b138 head prints DRD2 F1063.28L),5.14 ± 1.34 nM
same,Emax,"DRD2 F1103.28L [3]; read-out: Emax relative to quinpirole response, DRD2 F1103.28L",79.4%
same,EC50,DRD2 F1103.28A [4],> 10000 nM
same,EC50,DRD2 F1103.28L [5],83.2 nM
same,Emax,DRD2 F1103.28L [5]; [14],12.9%
same,Ki,"DRD2 F1103.28A [6]; DRD2 F1103.28A, read-out: pKi ± SEM (converted)",174 nM
same,"affinity increase (binding enhanced), mutant vs wild type",DRD2 F1103.28A [6]; DRD2 Phe110^3.28Ala vs wild-type DRD2,8.47 fold
same,EC50,"DRD2 (D2 long receptor) [7]; DRD2, agonist, Gαi/o-mediated cAMP inhibition, read-out: EC50 ± SEM",25.1 ± 4.15 nM
same,"response, Fig_S11d dose-response source data",DRD2 (D2 long receptor) [7]; Log[Drug] -6.52,81.714
same,"response, Fig_S11d dose-response source data",DRD2 (D2 long receptor) [7]; Log[Drug] -7,60.3486 and 66.6804 and 72.7008 and 60.4684 and 68.6286 and 77.0139 and 66.1563 and 80.9789 and 74.7009
same,"response, Fig_S11d dose-response source data",DRD2 (D2 long receptor) [7]; Log[Drug] -7.52,64.1546 and 42.5815 and 54.9164 and 48.6839 and 50.89 and 54.6944 and 53.231 and 58.2356 and 61.6484
same,"response, Fig_S11d dose-response source data",DRD2 (D2 long receptor) [7]; Log[Drug] -8,30.3505 and 38.7582 and 38.4468 and 27.6925 and 25.4414 and 37.7886 and 33.6203 and 36.6384 and 38.4211
same,"response, Fig_S11d dose-response source data",DRD2 (D2 long receptor) [7]; Log[Drug] -8.52,18.8806 and 26.4753 and 29.6239 and 29.8085 and 24.7211 and 36.5506 and 30.7552 and 20.988 and 25.8907
same,"response, Fig_S11d dose-response source data",DRD2 (D2 long receptor) [7]; Log[Drug] -9,10.6977 and 6.477 and 22.1503 and -4.7682 and 5.553 and 28.1427 and 15.0029 and 22.6689 and 22.3633
same,"response, Fig_S11d dose-response source data",DRD2 (D2 long receptor) [7]; Log[Drug] -9.52,13.483 and 14.7978 and 22.2541 and 0.3305 and -1.0989 and 21.5583 and 10.5969 and 17.6134 and 23.573
same,"response, Fig_S11d dose-response source data",DRD2 (D2 long receptor) [7]; Log[Drug] -10,5.075 and 27.3403 and 11.8049 and -5.4661 and -6.0063 and 15.8293 and -4.1493 and 12.6598 and 11.3991
same,"response, Fig_S11d dose-response source data",DRD2 (D2 long receptor) [7]; Log[Drug] -10.52,26.6829 and 14.6767 and 28.6205 and 3.955 and -0.615 and 13.1617 and 5.592 and 6.484 and 18.0973
same,"response, Fig_S11d dose-response source data",DRD2 (D2 long receptor) [7]; Log[Drug] -11,14.0885 and 21.7351 and 14.8497 and 2.548 and 0.2179 and 18.1479 and 4.5736 and 10.5841 and 33.4421
same,"response, Fig_S11d dose-response source data",DRD2 (D2 long receptor) [7]; Log[Drug] -11.52,14.3134 and 21.1815 and -2.3983 and 1.163 and 10.5955 and 20.3089 and -4.0602 and -1.4624 and 2.396
same,"response, Fig_S11d dose-response source data",DRD2 (D2 long receptor) [7]; Log[Drug] -12,-12.3977 and -4.8203 and -3.3671 and -5.6011 and 0.2067 and 18.6656 and 6.267 and -13.7 and 1.135
same,Emax,"DRD2 (D2 long receptor) [7]; HEK-293T, read-out: Emax relative to quinpirole response, DRD2, cAMP inhibition",93.5%
same,EC50,"DRD2 (D2 long receptor) [8]; DRD2, β-arrestin2 recruitment (Tango), read-out: EC50 ± SEM",958 ± 554 nM
same,"response, Fig_S11e dose-response source data",DRD2 (D2 long receptor) [8]; Log[Drug] -6.52,25.1709
same,"response, Fig_S11e dose-response source data",DRD2 (D2 long receptor) [8]; Log[Drug] -7,14.6742 and 15.2038 and 14.2094 and 15.768 and 13.8247 and 10.963 and 9.8559 and 9.763 and 11.4407
same,"response, Fig_S11e dose-response source data",DRD2 (D2 long receptor) [8]; Log[Drug] -7.52,7.064 and 7.803 and 7.822 and 6.018 and 6.959 and 8.6294 and 5.868 and 6.2292 and 7.2281
same,"response, Fig_S11e dose-response source data",DRD2 (D2 long receptor) [8]; Log[Drug] -8,5.7468 and 5.978 and 6.62 and 5.455 and 5.722 and 6.021 and 5.454 and 5.678 and 6.204
same,"response, Fig_S11e dose-response source data",DRD2 (D2 long receptor) [8]; Log[Drug] -8.52,5.4648 and 5.687 and 6.826 and 4.883 and 5.2931 and 6.0726 and 5.125 and 5.623 and 6.271
same,"response, Fig_S11e dose-response source data",DRD2 (D2 long receptor) [8]; Log[Drug] -9,5.367 and 5.481 and 6.509 and 5.152 and 5.102 and 5.412 and 5.069 and 5.184 and 5.586
same,"response, Fig_S11e dose-response source data",DRD2 (D2 long receptor) [8]; Log[Drug] -9.52,5.23 and 5.307 and 5.645 and 4.9908 and 4.966 and 5.083 and 5.0713 and 4.923 and 5.288
same,"response, Fig_S11e dose-response source data",DRD2 (D2 long receptor) [8]; Log[Drug] -10,5.15 and 5.211 and 5.175 and 4.9 and 4.98 and 4.8838 and 4.832 and 4.97 and 4.906
same,"response, Fig_S11e dose-response source data",DRD2 (D2 long receptor) [8]; Log[Drug] -10.52,5.0534 and 4.953 and 5.08 and 4.774 (2×) and 4.9 and 4.962 and 4.816 and 4.832
same,"response, Fig_S11e dose-response source data",DRD2 (D2 long receptor) [8]; Log[Drug] -11,5.0347 and 4.933 and 5.013 and 4.706 and 4.819 and 4.763 and 4.774 (2×) and 4.732
same,"response, Fig_S11e dose-response source data",DRD2 (D2 long receptor) [8]; Log[Drug] -11.52,4.924 and 5.294 and 5.1115 and 4.785 and 5.303 and 4.761 and 4.741 and 4.765 and 4.928
same,"response, Fig_S11e dose-response source data",DRD2 (D2 long receptor) [8]; Log[Drug] -12,4.887 and 4.896 and 4.876 and 4.741 and 5.073 and 4.844 and 4.843 and 5.092 and 4.723
same,Emax,"DRD2 (D2 long receptor) [8]; HTLA, read-out: Emax relative to quinpirole response, DRD2, Tango",54%
same,Ki,DRD3 F1063.28A [9],209 nM
same,"affinity decreased, mutant vs wild type",DRD3 F1063.28A [9]; DRD3 Phe106^3.28Ala vs wild-type DRD3,1.62 fold
same,Ki,[10],3470 nM
same,EC50,DRD3 F1063.28A [11],> 10000 nM
same,Ki,[12],1440 nM
same,EC50,DRD2 F1103.28A [13],> 10000 nM
